Laboratory results taken from patent US11213590B2, “SSTR-targeted conjugates and particles and formulations thereof” (priority 2016, dated 2022).
Read-outs that look alike come from different tables or passages of the source.

Key:
[1] = test system: NCI-H69 xenograft; experiment: NCI-H69 lung xenograft efficacy, formulations and schedules; assay type: in vivo, mice; settings: cisplatin iv 5.0 mg/kg 1x/week combined with etoposide ip 8.0 mg/kg 3x/week over two weeks (SOC); Day 21
Protocol: A further NCI-H69 study design included Conjugate 57 dosed iv at 1.0 mg/kg formulated in propylene glycol (PG), 1.0 mg/kg formulated in Solutol HS15, 0.5 mg/kg formulated in Solutol HS15 dosed twice per week, and 0.33 mg/kg formulated in Solutol HS15 dosed three times per week. A comparator group was dosed with SOC cisplatin dosed iv at 5.0 mg/kg once per week/etoposide dosed ip at 8.0 mg/kg three times per week over two weeks. A negative control vehicle was dosed with the Solutol HS 15 vehicle. All groups contained 10 animals.

[2] = test system: NCI-H69; experiment: cells; assay type: cell-based, human; settings: Homo sapiens, read-out: Proliferation Inhibition IC50 of DM1
Protocol: (§1) The purpose of this study was to determine the receptor-dependent inhibition of proliferation in vitro by the somatostatin targeting conjugate Conjugate 57 and determine the sensitivity to DM1 in the human SSTR2 expressing cancer cell lines: NCI-H69, NCI-H82, NCI-H727 and HCC-33. Cells were incubated with Conjugate 57 for 6 hours, in the presence or absence of an excess of octreotide, a somatostatin analogue. A three-fold serial dilution of Conjugate 57 was used for a total of ten concentration points. After treatment, cells were washed, incubated for an additional period of time, either 72 or 96 hours and proliferation was measured using the CellTiter-Glo® Luminescent Cell Viability Assay. The IC50 of Conjugate 57 was used to determine the inhibiting activity in proliferation assays. To determine DM1 sensitivity a similar method to the Conjugate 57 assay was employed with the additional incubation time points of 30 minutes, 1, 2, and 4 hours and the exclusion of the pre-treatment with octreotide. DM1 effect from the most to least sensitive cell line was determined to be: NCI-H69>HCC-33>NCI-H82>NCI-H727 (Table 5B). […] The addition of excess octreotide (100 μM) competes with Conjugate 57 for binding to the SSTR2 receptor. […] In the NCI-H69 experiments, pre-incubation with an excess of octreotide modestly diminished the activity of Conjugate 57 by 1.6 and 2.4 fold, depending on the assay conditions. In the HCC-33 cell line, activity of Conjugate 57 was 3.2 (±1.4) times higher when dosed alone, compared to when the cells were pre-incubated with octreotide. The small but measureable changes in Conjugate 57 activity in the presence of excess octreotide seen in the NCI-H69 and HCC-33 cell lines supports the receptor dependence of the Conjugate 57 antiproliferative effect seen in vitro. In summary, although all the cell lines tested in these experiments express the SSTR2 protein, they have different levels of sensitivity to the Conjugate 57 conjugate of which the DM1 sensitivity may be a contributing factor.

[3] = test system: NCI-H82; experiment: cells; assay type: cell-based, human; settings: Homo sapiens, read-out: Proliferation Inhibition IC50 of DM1
Protocol: as §1

[4] = test system: NCI-H727; experiment: cells; assay type: cell-based, human; settings: Homo sapiens, read-out: Proliferation Inhibition IC50 of DM1
Protocol: as §1

[5] = molecular target: CYP3A4 (Homo sapiens, UniProt P08684); settings: KADCYLA package insert; to a lesser extent by CYP3A5; cited from earlier work
Sequence of CYP3A4 (P08684 whole entry): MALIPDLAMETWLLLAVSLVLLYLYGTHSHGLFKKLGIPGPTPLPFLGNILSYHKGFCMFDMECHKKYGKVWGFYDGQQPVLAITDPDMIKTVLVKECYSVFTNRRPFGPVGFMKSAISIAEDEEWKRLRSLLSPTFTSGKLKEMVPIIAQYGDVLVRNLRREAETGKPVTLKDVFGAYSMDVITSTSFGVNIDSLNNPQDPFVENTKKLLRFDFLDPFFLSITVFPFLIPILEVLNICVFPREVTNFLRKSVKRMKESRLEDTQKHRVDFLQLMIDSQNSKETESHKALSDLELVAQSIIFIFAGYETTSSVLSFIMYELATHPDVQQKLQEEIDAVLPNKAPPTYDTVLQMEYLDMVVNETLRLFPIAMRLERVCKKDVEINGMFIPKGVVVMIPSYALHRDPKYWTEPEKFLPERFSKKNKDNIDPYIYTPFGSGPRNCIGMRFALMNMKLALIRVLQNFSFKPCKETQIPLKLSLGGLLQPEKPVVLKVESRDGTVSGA

[6] = test system: HCC-33; experiment: Inhibition of proliferation, CellTiter-Glo, HCC-33; assay type: cell-based, human; settings: Homo sapiens, HCC33, 6 h incubation, n = 3, read-out: Proliferation Inhibition IC50 of DM1
Protocol: as §1

[7] = cited from earlier work

For `N.N.[Cl][Pt][Cl]` [Cisplatin, reference compound], the “MTV (Mean Tumor Volume)” value [1] was 229 mm3 and the “TGI (Tumor Growth Inhibition)” value [1] was 84%.

In the case of `COc1cc2cc(c1Cl)N(C)C(=O)C[C@H](OC(=O)[C@H](C)N(C)C(=O)CCS)C1(C)O[C@H]1[C@H](C)[C@@H]1C[C@@](O)(NC(=O)O1)[C@H](OC)/C=C/C=C(\C)C2` (stereo partly drawn) [DM1, mertansine (DM1), reference compound], the IC50 ([2]; 0.5 h, 30 min incubation) is reported as 15 nM, the IC50 ([2]; 1 h incubation) is reported as 8 nM and the IC50 ([2]; 2 h incubation) is reported as 14 nM. For the same compound, the IC50 ([2]; 4 h incubation) was 11 nM, the IC50 ([2]; 6 h incubation) was 6 nM and the IC50 ([3]; 0.5 h, 30 min incubation) was 171 nM. It also gave an IC50 ([3]; 1 h incubation) of 232 nM, an IC50 ([3]; 2 h incubation) of 183 nM and an IC50 ([3]; 4 h incubation) of 188 nM. It also gave an IC50 ([3]; 6 h incubation) of 56 nM, an IC50 ([4]; 0.5 h, 30 min incubation) of 1160 nM and an IC50 ([4]; 1 h incubation) of 665 nM. For the same compound, the IC50 ([4]; 2 h incubation) was 474 nM, the IC50 ([4]; 4 h incubation) was 380 nM and the IC50 ([4]; 6 h incubation) was 534 nM. The “metabolizing enzymes in vitro” value [5] was “metabolized in vitro mainly by CYP3A4” and the IC50 [6] was 34 nM.

In the case of `C[C@@H](O)[C@@H]1NC(=O)[C@H](CCCCN)NC(=O)[C@@H](Cc2c[nH]c3ccccc23)NC(=O)[C@H](Cc2ccccc2)NC(=O)[C@@H](NC(=O)[C@@H](Cc2ccccc2)NC(=O)CN(CCN(CCN(CC(=O)O)CC(=O)O)CC(=O)O)CC(=O)O)CSSC[C@@H](C(=O)N[C@H](CO)[C@@H](C)O)NC1=O` [^111In pentetreotide, metal not drawn], the “hormonal effect relative to octreotide” value ([7]; according to the manufacturer) is listed as 1/10 and the “adverse reactions, frequency” value ([7]; human, in vivo) is listed as less than 1%.
